From the NIST ThermoML archive (doi:10.1016/j.tca.2016.01.003) come the findings set out here.

Numbers after ± are expanded uncertainties.

For series [1] the following is noted: Crystal; DTA.
Series [2] is described as follows: Molar enthalpy of transition or fusion. Conditions: Crystal; DSC.

Consider `CN1C(=O)N[C@H]2NC(=O)N(C)[C@H]21`, for which the Normal melting temperature in series [1] was found to be 303 ± 0.6 °C. Moreover, the “Molar enthalpy of transition or fusion” value in series [2] was found to be 43.1 ± 1 kJ/mol.
